The values below are quoted from earlier work in publication PMC7489895 (Biochemical Journal, 2020).

In one data set the test system is human skeletal muscle. Conditions: ref Ahn et al. [30].
The subject of a further data set is MondoA. Conditions: skeletal myoblasts, in response to insulin; ref Ahn et al. [30].
The target of a further data set is importin α (Mus musculus, UniProt P52293). Conditions: read-out: KD, NLS - importin α.

Regarding `COc1ccc(-c2csc(NC(=O)c3ccc(OCC(=O)N4CCOCC4)c(OC)c3)n2)cc1` [SBI-477], the “effect on intramuscular lipid accumulation” value in the data set with human skeletal muscle is on record as “inhibits intramuscular lipid accumulation”. In addition, in the data set on MondoA, the “effect on nuclear localization of MondoA” value was “inhibits the nuclear localization of Mondo A”.
By Kd is commonly meant a measure of binding affinity in units of concentration. On to “K^155RPAATKKAGQAKKKK^170 (KRPAATKKAGQAKKKK; NLS; UniProt P05221 155-170, looked up, fragment) [Nucleoplasmin]”, for which, in the data set with importin α, the Kd was 190 ± 20 nM.
As to P^126KKKRKV^132 [SV40], the Kd at importin α is 310 ± 150 nM.
Consider R^617KCYEAGMTLGARKLKKL^634, for which the Kd with importin α was 5000 ± 100 nM.
